Test results from ChEMBL document CHEMBL3991601, “The target landscape of clinical kinase drugs” (Science, 2017).
Activity calls are given as the source filed them. Cut-off read from the data, not from the text of the source, for most assays here: actives have a measured Kd and inactives only a lower limit.

Columns and labels:
[1] = biological target: Tyrosine-protein kinase ABL2 (Homo sapiens, UniProt P42684)
[2] = biological target: T1, Activin receptor type-1 (Homo sapiens, UniProt Q04771)
T1 sequence (Q04771 whole entry): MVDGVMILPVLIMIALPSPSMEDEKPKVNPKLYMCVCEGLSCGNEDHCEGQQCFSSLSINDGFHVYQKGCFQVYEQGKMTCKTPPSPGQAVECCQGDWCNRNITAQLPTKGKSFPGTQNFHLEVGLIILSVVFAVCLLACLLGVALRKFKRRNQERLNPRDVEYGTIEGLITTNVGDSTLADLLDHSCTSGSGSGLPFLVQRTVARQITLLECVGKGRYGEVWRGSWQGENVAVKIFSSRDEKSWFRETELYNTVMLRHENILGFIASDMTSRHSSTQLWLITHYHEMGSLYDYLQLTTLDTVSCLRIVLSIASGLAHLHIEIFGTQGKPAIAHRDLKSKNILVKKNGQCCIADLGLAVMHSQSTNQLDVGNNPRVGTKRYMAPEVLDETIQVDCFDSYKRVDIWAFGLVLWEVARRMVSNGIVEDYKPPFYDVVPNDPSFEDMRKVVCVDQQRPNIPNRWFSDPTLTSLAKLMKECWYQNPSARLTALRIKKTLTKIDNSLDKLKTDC

[3] = biological target: ATP-dependent RNA helicase DDX3X (Homo sapiens, UniProt O00571)
[4] = biological target: T2, Ephrin type-B receptor 4 (Homo sapiens, UniProt P54760)
T2 sequence (P54760 whole entry): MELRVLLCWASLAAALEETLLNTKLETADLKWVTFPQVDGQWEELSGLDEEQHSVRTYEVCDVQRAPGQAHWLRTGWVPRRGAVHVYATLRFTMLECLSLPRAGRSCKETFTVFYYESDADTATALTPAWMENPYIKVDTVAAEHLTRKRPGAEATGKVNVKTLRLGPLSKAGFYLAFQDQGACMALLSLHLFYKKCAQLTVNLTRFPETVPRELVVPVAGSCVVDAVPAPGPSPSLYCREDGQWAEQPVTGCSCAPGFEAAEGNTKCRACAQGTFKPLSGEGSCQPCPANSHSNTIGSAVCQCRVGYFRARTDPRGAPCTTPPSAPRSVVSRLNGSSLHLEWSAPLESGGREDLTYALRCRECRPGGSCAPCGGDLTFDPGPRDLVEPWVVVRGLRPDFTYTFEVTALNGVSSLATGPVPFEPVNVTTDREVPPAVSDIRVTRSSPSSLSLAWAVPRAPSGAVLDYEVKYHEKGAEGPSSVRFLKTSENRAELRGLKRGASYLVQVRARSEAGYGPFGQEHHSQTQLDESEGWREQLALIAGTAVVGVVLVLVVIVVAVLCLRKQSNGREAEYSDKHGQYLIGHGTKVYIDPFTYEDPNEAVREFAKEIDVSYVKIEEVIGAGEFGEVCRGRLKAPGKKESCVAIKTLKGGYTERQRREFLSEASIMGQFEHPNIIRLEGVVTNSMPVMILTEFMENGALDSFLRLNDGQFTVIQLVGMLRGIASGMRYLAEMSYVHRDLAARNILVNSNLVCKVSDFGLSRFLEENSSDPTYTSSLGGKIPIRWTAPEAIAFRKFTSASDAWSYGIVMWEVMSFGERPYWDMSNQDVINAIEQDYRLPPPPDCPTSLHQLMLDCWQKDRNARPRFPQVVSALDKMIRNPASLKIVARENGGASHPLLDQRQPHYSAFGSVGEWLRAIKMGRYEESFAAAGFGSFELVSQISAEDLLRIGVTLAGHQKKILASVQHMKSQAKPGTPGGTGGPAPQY

[5] = biological target: T3, Heme oxygenase 2 (Homo sapiens, UniProt P30519)
T3 sequence (P30519 whole entry): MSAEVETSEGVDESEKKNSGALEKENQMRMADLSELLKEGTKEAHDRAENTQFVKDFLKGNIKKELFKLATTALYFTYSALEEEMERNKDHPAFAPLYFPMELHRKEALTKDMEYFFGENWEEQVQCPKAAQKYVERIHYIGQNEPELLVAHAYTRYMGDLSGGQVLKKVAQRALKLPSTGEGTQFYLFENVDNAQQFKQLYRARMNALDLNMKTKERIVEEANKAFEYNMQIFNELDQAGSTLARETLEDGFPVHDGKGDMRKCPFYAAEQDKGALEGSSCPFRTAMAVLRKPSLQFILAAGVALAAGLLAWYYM

[6] = biological target: T4, MAP kinase-activated protein kinase 5 (Homo sapiens, UniProt Q8IW41)
T4 sequence (Q8IW41 whole entry): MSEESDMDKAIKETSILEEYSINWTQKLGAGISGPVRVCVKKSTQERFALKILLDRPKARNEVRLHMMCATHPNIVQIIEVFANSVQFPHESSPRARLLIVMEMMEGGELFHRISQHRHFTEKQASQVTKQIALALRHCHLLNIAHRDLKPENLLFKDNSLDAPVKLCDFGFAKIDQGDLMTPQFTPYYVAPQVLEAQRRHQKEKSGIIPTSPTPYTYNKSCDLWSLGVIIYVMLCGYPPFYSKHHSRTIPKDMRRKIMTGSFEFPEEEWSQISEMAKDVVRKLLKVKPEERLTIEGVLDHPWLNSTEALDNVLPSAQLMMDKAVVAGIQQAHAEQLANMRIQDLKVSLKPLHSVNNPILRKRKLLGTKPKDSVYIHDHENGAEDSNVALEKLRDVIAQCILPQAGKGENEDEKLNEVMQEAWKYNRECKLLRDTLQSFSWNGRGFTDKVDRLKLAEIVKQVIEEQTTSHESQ

[7] = biological target: Protein-tyrosine kinase 2-beta (Homo sapiens, UniProt Q14289)
[8] = biological target: Ribosomal protein S6 kinase alpha-6 (Homo sapiens, UniProt Q9UK32)
[9] = biological target: STE20-like serine/threonine-protein kinase (Homo sapiens, UniProt Q9H2G2)
Note: in the data inactive means no Kd found up to 30 µM.

Chain of Tyrosine-protein kinase ABL2 (P42684 whole entry): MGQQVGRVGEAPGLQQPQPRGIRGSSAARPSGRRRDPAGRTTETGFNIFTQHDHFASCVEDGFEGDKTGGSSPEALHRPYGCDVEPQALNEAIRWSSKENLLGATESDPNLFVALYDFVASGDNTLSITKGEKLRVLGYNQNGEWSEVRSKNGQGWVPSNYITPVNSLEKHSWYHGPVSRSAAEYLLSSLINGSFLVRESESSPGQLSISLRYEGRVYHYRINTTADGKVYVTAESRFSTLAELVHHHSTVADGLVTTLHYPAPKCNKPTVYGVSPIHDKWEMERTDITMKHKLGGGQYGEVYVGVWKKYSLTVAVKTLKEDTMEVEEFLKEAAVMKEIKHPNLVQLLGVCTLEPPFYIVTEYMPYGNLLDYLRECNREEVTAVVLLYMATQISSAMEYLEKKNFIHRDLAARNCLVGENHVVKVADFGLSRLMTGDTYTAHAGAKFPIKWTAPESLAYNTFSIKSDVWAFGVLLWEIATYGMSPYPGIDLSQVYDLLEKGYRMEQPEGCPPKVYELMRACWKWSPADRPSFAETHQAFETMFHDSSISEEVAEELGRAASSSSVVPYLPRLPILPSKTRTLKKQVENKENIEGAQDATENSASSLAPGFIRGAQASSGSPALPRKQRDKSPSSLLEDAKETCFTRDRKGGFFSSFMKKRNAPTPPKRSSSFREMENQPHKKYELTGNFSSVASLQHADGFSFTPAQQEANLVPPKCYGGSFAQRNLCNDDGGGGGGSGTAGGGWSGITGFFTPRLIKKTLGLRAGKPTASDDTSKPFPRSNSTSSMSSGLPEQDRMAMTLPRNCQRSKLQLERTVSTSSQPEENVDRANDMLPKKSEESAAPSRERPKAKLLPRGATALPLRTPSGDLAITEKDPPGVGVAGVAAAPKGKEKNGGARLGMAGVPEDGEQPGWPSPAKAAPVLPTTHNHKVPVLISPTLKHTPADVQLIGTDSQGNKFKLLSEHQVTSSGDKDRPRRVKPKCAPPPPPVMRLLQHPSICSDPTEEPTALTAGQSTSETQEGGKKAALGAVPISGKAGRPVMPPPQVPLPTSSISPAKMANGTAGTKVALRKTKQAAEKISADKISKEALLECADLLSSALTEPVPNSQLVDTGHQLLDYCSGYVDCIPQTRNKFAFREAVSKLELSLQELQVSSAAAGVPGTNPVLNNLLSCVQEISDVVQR
Chain of STE20-like serine/threonine-protein kinase (Q9H2G2 whole entry): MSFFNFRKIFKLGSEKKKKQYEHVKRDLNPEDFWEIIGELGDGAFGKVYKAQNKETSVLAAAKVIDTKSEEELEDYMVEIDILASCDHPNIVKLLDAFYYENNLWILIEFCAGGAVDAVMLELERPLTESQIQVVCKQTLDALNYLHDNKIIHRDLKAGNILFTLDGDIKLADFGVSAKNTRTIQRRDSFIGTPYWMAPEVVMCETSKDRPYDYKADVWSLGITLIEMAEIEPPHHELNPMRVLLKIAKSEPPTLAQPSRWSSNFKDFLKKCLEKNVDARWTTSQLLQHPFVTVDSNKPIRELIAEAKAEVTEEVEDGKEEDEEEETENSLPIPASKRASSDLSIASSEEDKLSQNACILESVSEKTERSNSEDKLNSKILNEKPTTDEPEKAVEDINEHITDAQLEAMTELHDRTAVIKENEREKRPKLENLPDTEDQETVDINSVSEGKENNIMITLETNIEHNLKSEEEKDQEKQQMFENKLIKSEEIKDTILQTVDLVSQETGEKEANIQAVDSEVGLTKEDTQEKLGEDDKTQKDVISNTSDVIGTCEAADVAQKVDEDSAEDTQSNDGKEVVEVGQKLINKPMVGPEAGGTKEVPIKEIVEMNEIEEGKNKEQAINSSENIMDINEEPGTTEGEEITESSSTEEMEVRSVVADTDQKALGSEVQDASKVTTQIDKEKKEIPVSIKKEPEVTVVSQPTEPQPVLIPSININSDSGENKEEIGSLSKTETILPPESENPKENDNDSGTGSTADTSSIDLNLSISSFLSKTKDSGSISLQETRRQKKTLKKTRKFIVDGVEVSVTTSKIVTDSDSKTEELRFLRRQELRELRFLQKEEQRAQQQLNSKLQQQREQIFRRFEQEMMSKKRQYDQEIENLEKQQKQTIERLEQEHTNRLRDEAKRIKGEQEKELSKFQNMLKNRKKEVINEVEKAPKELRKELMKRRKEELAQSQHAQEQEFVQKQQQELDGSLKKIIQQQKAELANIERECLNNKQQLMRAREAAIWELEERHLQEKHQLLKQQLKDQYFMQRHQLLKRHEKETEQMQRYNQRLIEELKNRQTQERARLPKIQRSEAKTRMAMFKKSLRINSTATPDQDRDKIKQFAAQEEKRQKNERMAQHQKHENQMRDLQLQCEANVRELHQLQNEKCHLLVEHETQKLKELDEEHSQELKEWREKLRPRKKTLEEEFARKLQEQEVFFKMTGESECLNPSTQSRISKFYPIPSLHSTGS
Chain of Protein-tyrosine kinase 2-beta (Q14289 whole entry): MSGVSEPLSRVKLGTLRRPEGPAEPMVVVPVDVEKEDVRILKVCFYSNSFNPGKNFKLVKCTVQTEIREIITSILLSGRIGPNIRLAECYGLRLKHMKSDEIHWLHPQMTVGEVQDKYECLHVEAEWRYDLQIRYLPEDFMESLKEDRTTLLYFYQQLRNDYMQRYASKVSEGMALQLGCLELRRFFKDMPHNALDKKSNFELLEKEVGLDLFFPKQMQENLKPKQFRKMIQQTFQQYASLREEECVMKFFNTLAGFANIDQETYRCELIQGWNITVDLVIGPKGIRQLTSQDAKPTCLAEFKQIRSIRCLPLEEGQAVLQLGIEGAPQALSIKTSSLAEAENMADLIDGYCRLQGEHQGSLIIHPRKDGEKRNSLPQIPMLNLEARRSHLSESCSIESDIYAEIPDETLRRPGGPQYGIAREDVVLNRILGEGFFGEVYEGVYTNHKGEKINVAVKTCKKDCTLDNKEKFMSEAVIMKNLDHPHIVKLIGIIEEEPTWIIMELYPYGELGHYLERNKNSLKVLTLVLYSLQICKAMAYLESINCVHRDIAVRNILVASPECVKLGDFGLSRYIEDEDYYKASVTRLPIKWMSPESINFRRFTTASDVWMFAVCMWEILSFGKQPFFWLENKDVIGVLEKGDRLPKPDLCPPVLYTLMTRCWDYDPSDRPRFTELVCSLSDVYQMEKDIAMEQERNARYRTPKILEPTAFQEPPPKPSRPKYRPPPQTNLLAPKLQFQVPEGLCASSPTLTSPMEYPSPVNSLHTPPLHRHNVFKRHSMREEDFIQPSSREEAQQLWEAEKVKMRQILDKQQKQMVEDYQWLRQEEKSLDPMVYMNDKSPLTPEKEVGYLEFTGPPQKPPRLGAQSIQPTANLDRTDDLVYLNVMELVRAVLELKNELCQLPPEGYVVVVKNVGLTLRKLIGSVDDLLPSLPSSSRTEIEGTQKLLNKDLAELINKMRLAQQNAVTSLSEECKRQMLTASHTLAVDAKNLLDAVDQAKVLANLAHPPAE
Chain of Ribosomal protein S6 kinase alpha-6 (Q9UK32 whole entry): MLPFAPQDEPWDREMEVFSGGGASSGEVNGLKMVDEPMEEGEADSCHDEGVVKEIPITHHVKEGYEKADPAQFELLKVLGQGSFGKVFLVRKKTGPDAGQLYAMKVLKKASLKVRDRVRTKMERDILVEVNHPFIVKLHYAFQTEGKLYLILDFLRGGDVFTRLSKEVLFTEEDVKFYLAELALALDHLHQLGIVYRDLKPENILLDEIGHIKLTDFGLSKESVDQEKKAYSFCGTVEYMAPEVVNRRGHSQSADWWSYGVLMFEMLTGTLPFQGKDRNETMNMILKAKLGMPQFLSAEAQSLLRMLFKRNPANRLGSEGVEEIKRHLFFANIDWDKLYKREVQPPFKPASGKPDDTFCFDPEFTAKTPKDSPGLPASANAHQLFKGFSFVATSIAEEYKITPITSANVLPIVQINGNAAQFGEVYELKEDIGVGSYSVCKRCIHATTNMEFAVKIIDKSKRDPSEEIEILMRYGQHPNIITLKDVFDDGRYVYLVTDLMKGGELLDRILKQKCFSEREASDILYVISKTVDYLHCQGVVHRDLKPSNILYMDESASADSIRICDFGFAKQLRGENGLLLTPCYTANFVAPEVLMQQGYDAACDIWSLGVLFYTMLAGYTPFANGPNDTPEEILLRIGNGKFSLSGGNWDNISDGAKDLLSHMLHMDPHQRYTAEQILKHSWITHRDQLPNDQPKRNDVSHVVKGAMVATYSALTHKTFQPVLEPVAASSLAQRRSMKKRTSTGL
Chain of ATP-dependent RNA helicase DDX3X (O00571 whole entry): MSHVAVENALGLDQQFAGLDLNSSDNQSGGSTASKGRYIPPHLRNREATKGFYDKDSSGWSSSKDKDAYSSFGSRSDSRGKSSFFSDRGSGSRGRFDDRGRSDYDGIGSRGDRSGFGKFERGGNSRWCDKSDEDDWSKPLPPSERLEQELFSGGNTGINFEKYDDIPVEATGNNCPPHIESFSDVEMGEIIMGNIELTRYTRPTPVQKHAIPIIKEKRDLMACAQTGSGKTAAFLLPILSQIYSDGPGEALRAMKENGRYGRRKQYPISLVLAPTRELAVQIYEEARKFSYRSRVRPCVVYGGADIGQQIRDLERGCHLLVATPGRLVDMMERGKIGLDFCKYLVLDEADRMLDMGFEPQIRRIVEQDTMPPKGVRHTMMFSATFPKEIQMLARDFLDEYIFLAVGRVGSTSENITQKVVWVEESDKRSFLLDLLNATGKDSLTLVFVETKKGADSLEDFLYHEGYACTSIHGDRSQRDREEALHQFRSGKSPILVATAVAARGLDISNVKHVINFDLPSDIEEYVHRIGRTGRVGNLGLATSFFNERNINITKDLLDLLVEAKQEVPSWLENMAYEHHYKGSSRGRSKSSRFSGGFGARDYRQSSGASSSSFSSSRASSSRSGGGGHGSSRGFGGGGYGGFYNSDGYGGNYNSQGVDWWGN

| SMILES | Kd [1] | Kd [2] | Kd [3] | Kd [4] | Kd [5] | Kd [6] | Kd [7] | Kd [8] | Kd [9] |
| --- | --- | --- | --- | --- | --- | --- | --- | --- | --- |
| O=c1sn(-c2cccc3ccccc23)c(=O)n1Cc1ccccc1 [TIDEGLUSIB] | > 30 µM (inactive) | > 30 µM (inactive) | > 30 µM (inactive) | > 30 µM (inactive) | > 30 µM (inactive) | > 30 µM (inactive) | > 30 µM (inactive) | > 30 µM (inactive) | > 30 µM (inactive) |
| Cn1cc(-c2ccc3nnc(C(F)(F)c4ccc5ncccc5c4)n3n2)cn1 [JNJ-38877605] | > 30 µM (inactive) | > 30 µM (inactive) | > 30 µM (inactive) | > 30 µM (inactive) | > 30 µM (inactive) | > 30 µM (inactive) | > 30 µM (inactive) | > 30 µM (inactive) | > 30 µM (inactive) |
| Cn1ncc(Cl)c1-c1cc(C(=O)N[C@H](CN)Cc2cccc(F)c2)sc1Cl [AFURESERTIB] | > 30 µM (inactive) | > 30 µM (inactive) | > 30 µM (inactive) | > 30 µM (inactive) | > 30 µM (inactive) | > 30 µM (inactive) | > 30 µM (inactive) | > 30 µM (inactive) | > 30 µM (inactive) |
| CNS(=O)(=O)Nc1nccc(Cc2c(C)c3ccc(Oc4ncccn4)cc3oc2=O)c1F [AVUTOMETINIB] | > 30 µM (inactive) | > 30 µM (inactive) | > 30 µM (inactive) | > 30 µM (inactive) | > 30 µM (inactive) | > 30 µM (inactive) | > 30 µM (inactive) | > 30 µM (inactive) | > 30 µM (inactive) |
| CCc1cnn2c(NCc3ccc[n+]([O-])c3)cc(N3CCCC[C@H]3CCO)nc12 [DINACICLIB] | > 30 µM (inactive) | > 30 µM (inactive) | > 30 µM (inactive) | > 30 µM (inactive) | > 30 µM (inactive) | > 30 µM (inactive) | > 30 µM (inactive) | > 30 µM (inactive) | > 30 µM (inactive) |
| COc1ccc(-c2ccc3c(N4CCOC[C@@H]4C)nc(N4CCOC[C@@H]4C)nc3n2)cc1CO [AZD-8055] | > 30 µM (inactive) | > 30 µM (inactive) | > 30 µM (inactive) | > 30 µM (inactive) | > 30 µM (inactive) | > 30 µM (inactive) | > 30 µM (inactive) | > 30 µM (inactive) | > 30 µM (inactive) |
| C[C@@H](Nc1cc(F)cc(F)c1)c1cc(C(=O)N(C)C)cc2c(=O)cc(N3CCOCC3)oc12 [AZD-8186] | > 30 µM (inactive) | > 30 µM (inactive) | > 30 µM (inactive) | > 30 µM (inactive) | > 30 µM (inactive) | > 30 µM (inactive) | > 30 µM (inactive) | > 30 µM (inactive) | > 30 µM (inactive) |
| CNC(=O)CN1CCC(Oc2cc3c(Nc4cccc(Cl)c4F)ncnc3cc2OC)CC1 [SAPITINIB] | > 30 µM (inactive) | > 30 µM (inactive) | > 30 µM (inactive) | 0.556 µM (active) | > 30 µM (inactive) | > 30 µM (inactive) | > 30 µM (inactive) | > 30 µM (inactive) | > 30 µM (inactive) |
| CCCS(=O)(=O)Nc1ccc(F)c(C(=O)c2c[nH]c3ncc(-c4ccc(Cl)cc4)cc23)c1F [VEMURAFENIB] | > 30 µM (inactive) | > 30 µM (inactive) | > 30 µM (inactive) | > 30 µM (inactive) | > 30 µM (inactive) | > 30 µM (inactive) | > 30 µM (inactive) | > 30 µM (inactive) | > 30 µM (inactive) |
| CNC(=O)c1ccc(C)c(-n2c(C)cc(OCc3ccc(F)cc3F)c(Br)c2=O)c1 [PH-797804] | > 30 µM (inactive) | > 30 µM (inactive) | > 30 µM (inactive) | > 30 µM (inactive) | > 30 µM (inactive) | > 30 µM (inactive) | > 30 µM (inactive) | > 30 µM (inactive) | > 30 µM (inactive) |
| COC(=O)[C@@]1(O)C[C@H]2O[C@]1(C)n1c3ccccc3c3c4c(c5c6ccccc6n2c5c31)C(=O)NC4 [K-252A] | > 30 µM (inactive) | > 30 µM (inactive) | > 30 µM (inactive) | > 30 µM (inactive) | > 30 µM (inactive) | > 30 µM (inactive) | 1.36 µM (active) | 2.18 µM (active) | 3.3 µM (active) |
| C[C@@H](c1ccc2nccn2c1)n1nnc2ncc(-c3cnn(C)c3)nc21 [SAVOLITINIB] | > 30 µM (inactive) | > 30 µM (inactive) | > 30 µM (inactive) | > 30 µM (inactive) | > 30 µM (inactive) | > 30 µM (inactive) | > 30 µM (inactive) | > 30 µM (inactive) | > 30 µM (inactive) |
| CN1CCC(COc2cnc(-c3cccc(Cn4nc(-c5cccc(C#N)c5)ccc4=O)c3)nc2)CC1 [TEPOTINIB] | > 30 µM (inactive) | > 30 µM (inactive) | > 30 µM (inactive) | > 30 µM (inactive) | > 30 µM (inactive) | > 30 µM (inactive) | > 30 µM (inactive) | > 30 µM (inactive) | > 30 µM (inactive) |
| COc1cc(N2CCC(N3CCN(C)CC3)CC2)ccc1Nc1ncnc(Nc2ccccc2S(=O)(=O)C(C)C)n1 [ASP-3026] | > 30 µM (inactive) | > 30 µM (inactive) | > 30 µM (inactive) | > 30 µM (inactive) | > 30 µM (inactive) | > 30 µM (inactive) | 0.273 µM (active) | > 30 µM (inactive) | 36.3 µM (active) |
| OCCn1cc(-c2cnc3nnn(Cc4ccc5ncccc5c4)c3n2)cn1 [PF-04217903] | > 30 µM (inactive) |  | > 30 µM (inactive) | > 30 µM (inactive) | > 30 µM (inactive) | > 30 µM (inactive) | > 30 µM (inactive) | > 30 µM (inactive) | > 30 µM (inactive) |
| Cc1ccc(NC(=O)c2ccc(CN3CC[C@H](N(C)C)C3)c(C(F)(F)F)c2)cc1Nc1nccc(-c2cncnc2)n1 [BAFETINIB] |  | > 30 µM (inactive) | > 30 µM (inactive) | 1.3 µM (active) | > 30 µM (inactive) | > 30 µM (inactive) | > 30 µM (inactive) | > 30 µM (inactive) | > 30 µM (inactive) |
